Reference: patent US10745377B2, “Piperidine or piperazine linked imidazole and triazole derivatives and methods of use” (MERCK SHARP & DOHME CORP., priority 2013, dated 2020)
pIC50: −log10 of the molar value. Read-outs that look alike come from different tables or passages of the source.

Legend:
Assay type in all cases: biochemical
CYP3A4 = target: T1, CYP3A4 (Homo sapiens, UniProt P08684); experiment: Cocktail assay for CYPs in human liver microsomes: CYP3A4 (midazolam 1′-hydroxylation); details: 2 μM midazolam, 10 min at 37° C., 6 concentrations up to 10 μM
T1 construct: 0.1 mg/mL protein human liver microsomes (BD Gentest); tissue BD Gentest; host or cells: human liver microsomes

CYP1A2 = target: T2, CYP1A2 (Homo sapiens, UniProt P05177); experiment: Cocktail assay for CYPs in human liver microsomes: CYP1A2 (phenacetin O-deethylation); details: for IC50: human liver microsomes 0.1 mg/mL, 10 μM phenacetin, 10 min at 37° C., 6 concentrations up to 10 μM, read-out: IC50 (nM) CYP1A2
T2 construct: 0.1 mg/mL protein human liver microsomes (BD Gentest); tissue BD Gentest; host or cells: human liver microsomes
T2 sequence (P05177 1-516): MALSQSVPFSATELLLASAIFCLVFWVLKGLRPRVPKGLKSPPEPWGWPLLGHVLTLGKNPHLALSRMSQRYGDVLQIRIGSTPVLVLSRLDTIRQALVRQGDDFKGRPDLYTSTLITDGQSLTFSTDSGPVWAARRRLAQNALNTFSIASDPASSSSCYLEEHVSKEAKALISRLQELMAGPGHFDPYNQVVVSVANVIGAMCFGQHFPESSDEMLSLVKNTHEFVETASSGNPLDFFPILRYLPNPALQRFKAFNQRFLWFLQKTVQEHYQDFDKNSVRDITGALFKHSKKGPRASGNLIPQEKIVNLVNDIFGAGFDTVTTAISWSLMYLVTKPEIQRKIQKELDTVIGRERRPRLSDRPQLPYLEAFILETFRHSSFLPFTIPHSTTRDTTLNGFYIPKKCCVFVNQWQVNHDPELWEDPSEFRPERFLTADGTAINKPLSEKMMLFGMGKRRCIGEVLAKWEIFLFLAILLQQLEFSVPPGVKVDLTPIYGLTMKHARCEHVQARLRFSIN
Method: (§1) Determination of IC50 in a Cocktail Assay for CYPs 1A2, 2C9, 2C19, 2D6 and 3A4
(§2) This assay was performed in a standard 96-well plate design. […] The incubation substrate mix contains 10 μM phenacetin (1A2), 5 μM diclofenac (2C9), 30 μM mephenytoin (2C19), 5 μM dextromethorphan (2D6) and 2 μM midazolam (3A4), 0.1 mg/mL protein human liver microsomes (BD Gentest), 1 mM NAPDH, 3.3 mM MgCl2 and 100 mM potassium phosphate buffer (pH 7.4). The production of the metabolite of each probe substrate was determined after incubation for 10 min at 37° C. Quantitation of the metabolite peak area ratio against an internal standard (tolbutamide) was determined by LC/MS/MS analysis following acetonitrile treatment of the incubations.
(§3) Samples were analyzed in the MRM mode with a SCIEX API-4000 mass spectrometer (Applied Biosystems, Foster City, Calif.), with a Shimadzu LC-20 AD pump (Shimadzu corporation, Kyoto, JP) and a CTC PAL autosampler (Agilent Technologies, Switzerland). A Phenomenex, Luna, 5 μm, 100 A, 2.00×30 mm HPLC column was used for the separation. The mobile phases were: (A) 0.1% formic acid in water and (B) 0.1% formic acid in acetonitrile. The binary gradient was as follows.
(§4) The mass spectrum parameters were as follows:
(§5) The LC/MS/MS parameters for the analytes were as follows.
(§6) The peak area ratio of the analyte to the internal standard was used to quantify the metabolite. The values of peak area ratios in the presence of test compound were compared to those of maximum or minimum controls and were expressed as % inhibition by interpolating between the maximum and minimum peak area ratios. Incubations with no inhibitor were defined as the maxima.
(§7) The following equation was used to calculate the % inhibition: [1−[(X−Low control)/(High control−Low control)]]*100
(§8) For the IC50 calculation, SigmaPlot was used to plot the mean % inhibition versus the test compound concentrations and for non-linear regression analysis of the data. Depending on the range of data points defining the inhibition curve, the data may have been fit to the 4-parameter logistic equation.

CYP2C9 = target: T3, CYP2C9 (Homo sapiens, UniProt P11712); experiment: Cocktail assay for CYPs in human liver microsomes: CYP2C9 (diclofenac 4′-hydroxylation); details: 5 μM diclofenac, 10 min at 37° C., 6 concentrations up to 10 μM
T3 construct: 0.1 mg/mL protein human liver microsomes (BD Gentest); tissue BD Gentest; host or cells: human liver microsomes

CYP2C19 = target: T4, CYP2C19 (Homo sapiens, UniProt P33261); experiment: Cocktail assay for CYPs in human liver microsomes: CYP2C19 (mephenytoin 4′-hydroxylation); details: 30 μM mephenytoin, 10 min at 37° C., 6 concentrations up to 10 μM
T4 construct: 0.1 mg/mL protein human liver microsomes (BD Gentest); tissue BD Gentest; host or cells: human liver microsomes
Method: as §1, §2, §3, §4, §5, §6, §7, §8

CYP2D6 = target: T5, CYP2D6 (Homo sapiens, UniProt P10635); experiment: Cocktail assay for CYPs in human liver microsomes: CYP2D6 (dextromethorphan O-demethylation); details: 5 μM dextromethorphan, 10 min at 37° C., 6 concentrations up to 10 μM
T5 construct: 0.1 mg/mL protein human liver microsomes (BD Gentest); tissue BD Gentest; host or cells: human liver microsomes
Method: as §1, §2, §3, §4, §5, §6, §7, §8

[1] = human liver microsomes 0.1 mg/mL, read-out: IC50 (nM) CYP3A4
[2] = human liver microsomes 0.1 mg/mL, read-out: IC50 (nM) CYP2C9
[3] = human liver microsomes 0.1 mg/mL, read-out: IC50 (nM) CYP2C19
[4] = human liver microsomes 0.1 mg/mL, read-out: IC50 (nM) CYP2D6
[5] = IC50 (nM) CYP3A4, human liver microsomes 0.1 mg/mL
[6] = IC50 (nM) CYP2C9, human liver microsomes 0.1 mg/mL
[7] = IC50 (nM) CYP2C19, human liver microsomes 0.1 mg/mL
[8] = IC50 (nM) CYP2D6, human liver microsomes 0.1 mg/mL

T4 sequence (P33261 whole entry): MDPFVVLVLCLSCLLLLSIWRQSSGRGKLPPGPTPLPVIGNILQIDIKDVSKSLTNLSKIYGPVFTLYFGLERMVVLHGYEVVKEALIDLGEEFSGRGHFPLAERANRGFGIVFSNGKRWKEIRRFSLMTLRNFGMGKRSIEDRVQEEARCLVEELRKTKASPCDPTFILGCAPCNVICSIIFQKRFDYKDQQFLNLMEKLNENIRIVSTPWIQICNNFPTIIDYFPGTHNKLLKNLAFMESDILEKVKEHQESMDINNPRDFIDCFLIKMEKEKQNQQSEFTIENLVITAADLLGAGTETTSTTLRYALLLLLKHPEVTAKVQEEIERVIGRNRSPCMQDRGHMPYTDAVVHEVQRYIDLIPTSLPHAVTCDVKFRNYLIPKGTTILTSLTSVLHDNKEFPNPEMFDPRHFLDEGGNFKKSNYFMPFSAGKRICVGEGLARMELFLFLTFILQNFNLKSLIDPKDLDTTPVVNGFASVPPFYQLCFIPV
T1 sequence (P08684 whole entry): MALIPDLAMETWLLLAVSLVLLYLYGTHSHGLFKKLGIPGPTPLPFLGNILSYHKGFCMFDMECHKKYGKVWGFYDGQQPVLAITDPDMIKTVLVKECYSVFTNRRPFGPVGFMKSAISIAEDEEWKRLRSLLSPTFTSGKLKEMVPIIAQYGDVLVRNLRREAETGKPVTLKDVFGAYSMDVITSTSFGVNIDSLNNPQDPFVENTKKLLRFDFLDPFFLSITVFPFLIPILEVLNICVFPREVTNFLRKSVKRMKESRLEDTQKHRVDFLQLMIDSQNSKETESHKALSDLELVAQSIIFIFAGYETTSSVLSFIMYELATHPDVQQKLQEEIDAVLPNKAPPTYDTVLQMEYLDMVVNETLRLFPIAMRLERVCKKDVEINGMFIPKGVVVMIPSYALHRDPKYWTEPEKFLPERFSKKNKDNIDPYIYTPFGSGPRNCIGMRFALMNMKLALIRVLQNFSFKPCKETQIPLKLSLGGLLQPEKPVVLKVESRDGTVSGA
T5 sequence (P10635 whole entry): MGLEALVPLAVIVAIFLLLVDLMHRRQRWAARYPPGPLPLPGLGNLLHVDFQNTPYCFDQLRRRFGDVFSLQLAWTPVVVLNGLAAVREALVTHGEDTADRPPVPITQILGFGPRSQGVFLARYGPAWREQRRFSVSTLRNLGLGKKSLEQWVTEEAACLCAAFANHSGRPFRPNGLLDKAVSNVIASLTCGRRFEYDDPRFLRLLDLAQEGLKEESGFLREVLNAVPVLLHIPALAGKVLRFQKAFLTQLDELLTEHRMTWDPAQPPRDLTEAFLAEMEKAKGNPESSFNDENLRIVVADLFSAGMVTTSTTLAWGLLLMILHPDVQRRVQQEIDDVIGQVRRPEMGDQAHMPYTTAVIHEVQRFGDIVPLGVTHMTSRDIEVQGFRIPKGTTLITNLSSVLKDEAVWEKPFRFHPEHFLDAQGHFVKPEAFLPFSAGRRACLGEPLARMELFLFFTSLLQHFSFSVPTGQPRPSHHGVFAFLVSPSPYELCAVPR
T3 sequence (P11712 whole entry): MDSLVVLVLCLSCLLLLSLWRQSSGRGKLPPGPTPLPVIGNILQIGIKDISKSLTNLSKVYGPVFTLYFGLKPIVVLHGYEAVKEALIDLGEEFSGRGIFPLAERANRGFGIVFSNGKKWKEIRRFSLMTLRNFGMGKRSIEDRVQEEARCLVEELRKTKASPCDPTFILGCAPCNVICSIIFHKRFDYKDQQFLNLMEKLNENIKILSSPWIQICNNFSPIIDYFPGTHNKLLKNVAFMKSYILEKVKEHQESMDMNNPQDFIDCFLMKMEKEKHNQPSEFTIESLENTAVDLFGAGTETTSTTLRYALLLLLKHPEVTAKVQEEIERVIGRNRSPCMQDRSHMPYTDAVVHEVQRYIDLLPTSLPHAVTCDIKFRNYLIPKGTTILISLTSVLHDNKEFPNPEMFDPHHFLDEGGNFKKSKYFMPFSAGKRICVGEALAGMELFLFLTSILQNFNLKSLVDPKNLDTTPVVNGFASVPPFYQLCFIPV

SMILES	IC50 (CYP3A4; [1])	IC50 (CYP1A2)	IC50 (CYP2C9; [2])	IC50 (CYP2C19; [3])	IC50 (CYP2D6; [4])	IC50 (CYP3A4; [5])	pIC50 (CYP1A2)	IC50 (CYP2C9; [6])	IC50 (CYP2C19; [7])	IC50 (CYP2D6; [8])
C[C@H](c1ccc(F)cc1)n1cncc1CN1CCC(C#N)(C2CCOCC2)CC1 [Compound 7, (R)-1-((1-(1-(4-fluorophenyl)ethyl)-1H-imidazol-5-yl)methyl)-4-(tetrahydro-2H-pyran-4-yl)piperidine-4-carbonitrile]	21 nM	> 10000 nM	8170 nM	> 10000 nM	8480 nM					
CC(C)CC1(C#N)CCN(Cc2cncn2[C@H](C)c2ccc(F)cc2)CC1 [Compound 8, (R)-1-((1-(1-(4-fluorophenyl)ethyl)-1H-imidazol-5-yl)methyl)-4-isobutylpiperidine-4-carbonitrile]	22 nM	9180 nM	2530 nM	3250 nM	2490 nM					
CCc1noc(C2(C)CCN(Cc3cncn3[C@H](C)c3ccc(F)cc3)CC2)n1 [Compound 9, (R)-3-ethyl-5-(1-((1-(1-(4-fluorophenyl)ethyl)-1H-imidazol-5-yl)methyl)-4-methylpiperidin-4-yl)-1,2,4-oxadiazole]	21 nM	> 10000 nM	2510 nM	2270 nM	2520 nM					
Cc1noc(C2(C)CCN(Cc3cncn3[C@H](C)c3ccc(F)cc3)CC2)n1 [Compound 10, (R)-5-(1-((1-(1-(4-fluorophenyl)ethyl)-1H-imidazol-5-yl)methyl)-4-methylpiperidin-4-yl)-3-methyl-1,2,4-oxadiazole]	17 nM	> 10000 nM	2330 nM	7020 nM	2100 nM					
CC(C)c1noc(C2(C)CCN(Cc3cncn3[C@H](C)c3ccc(F)cc3)CC2)n1 [Compound 11, (R)-5-(1-((1-(1-(4-fluorophenyl)ethyl)-1H-imidazol-5-yl)methyl)-4-methylpiperidin-4-yl)-3-isopropyl-1,2,4-oxadiazole]	21 nM	5070 nM	2880 nM	3310 nM	5990 nM					
N#Cc1ccc(C2(n3cncc3CN3CCC(C#N)(c4ccc(F)cc4)CC3)CC2)cc1 [Compound 12, 1-((1-(1-(4-cyanophenyl)cyclopropyl)-1H-imidazol-5-yl)methyl)-4-(4-fluorophenyl)piperidine-4-carbonitrile]						50 nM	5.83	5320 nM	3980 nM	6360 nM
C[C@H](c1ccc(F)cc1)n1cncc1CN1CCC(C#N)(c2ccccn2)CC1 [Compound 13, (R)-1-((1-(1-(4-fluorophenyl)ethyl)-1H-imidazol-5-yl)methyl)-4-(pyridin-2-yl)piperidine-4-carbonitrile]	10 nM	> 10000 nM	4670 nM	6400 nM	> 10000 nM					
C[C@H](c1ccc(F)cc1)n1cncc1CN1CCC(C#N)(c2ccccc2)CC1 [Compound 14, (R)-1-((1-(1-(4-fluorophenyl)ethyl)-1H-imidazol-5-yl)methyl)-4-phenylpiperidine-4-carbonitrile]						17 nM	5.26	2200 nM	2600 nM	3700 nM
COC(=O)C1(c2ccccc2)CCN(Cc2cncn2[C@H](C)c2ccc(F)cc2)CC1 [Compound 15, (R)-methyl 1-((1-(1-(4-fluorophenyl)ethyl)-1H-imidazol-5-yl)methyl)-4-phenylpiperidine-4-carboxylate]						16 nM	5.62	1390 nM	1250 nM	2080 nM
CC(c1ccccc1-c1ccc(F)cc1)n1cncc1CN1CCC(F)(F)C1 (stereo not drawn) [Compound 16, 5-((3,3-difluoropyrrolidin-1-yl)methyl)-1-(1-(4′-fluoro-[1,1′-biphenyl]-2-yl)ethyl)-1H-imidazole]	18 nM	> 10000 nM	7470 nM	4270 nM	1930 nM					
CC(c1ccccc1-c1ccc(F)cc1)n1cncc1CN1CCC(O)C1 (stereo not drawn) [Compound 17, 1-((1-(1-(4′-fluoro-[1,1′-biphenyl]-2-yl)ethyl)-1H-imidazol-5-yl)methyl) pyrrolidin-3-ol]	29 nM	> 10000 nM	> 10000 nM	> 10000 nM	4040 nM					
CC(c1ccccc1-c1ccc(F)cc1)n1cncc1CN1CCCNC(=O)C1 (stereo not drawn) [Compound 18, 4-((1-(1-(4′-fluoro-[1,1′-biphenyl]-2-yl)ethyl)-1H-imidazol-5-yl)methyl)-1,4-diazepan-2-one]	29 nM	> 10000 nM	> 10000 nM	4790 nM	> 10000 nM					
C[C@H](c1ccc(C#N)cc1)n1cncc1CN1CCC2(CC1)C(=O)NCN2c1ccccc1 [Compound 19, (R)-4-(1-(5-((4-oxo-1-phenyl-1,3,8-triazaspiro[4.5]decan-8-yl)methyl)-1H-imidazol-1-yl)ethyl) benzonitrile]	50 nM	> 10000 nM	1660 nM	2420 nM	9970 nM					
CC(c1ccccc1-c1ccc(F)cc1)n1cncc1CN1CCS(=O)(=O)CC1 (stereo not drawn) [Compound 20, 4-((1-(1-(4′-fluoro-[1,1′-biphenyl]-2-yl)ethyl)-1H-imidazol-5-yl)methyl) thiomorpholin 1,1-dioxide]	35 nM	> 10000 nM	> 10000 nM	9910 nM	> 10000 nM					
C[C@H](c1ccc(C#N)cc1)n1cncc1CN1CCC(c2nc3ccccc3o2)CC1 [Compound 21, (R)-4-(1-(5-((4-(benzo[d]oxazol-2-yl)piperidin-1-yl)methyl)-1H-imidazol-1-yl)ethyl) benzonitrile]	35 nM	> 10000 nM	4080 nM	8700 nM	7520 nM					
C[C@H](c1ccc(C#N)cc1)n1cncc1CN1CCC(c2nc3ccccc3s2)CC1 [Compound 22, (R)-4-(1-(5-((4-(benzo[d]thiazol-2-yl)piperidin-1-yl)methyl)-1H-imidazol-1-yl)ethyl) benzonitrile]	26 nM	> 10000 nM	1760 nM	4690 nM	3210 nM					
C[C@H](c1ccc(F)cc1)n1cncc1CN1CCN(c2nc3ccccc3o2)CC1 [Compound 23, (R)-2-(4-((1-(1-(4-fluorophenyl)ethyl)-1H-imidazol-5-yl)methyl)piperazin-1-yl)benzo[d]oxazole]	7 nM	> 10000 nM	4370 nM	3160 nM	2920 nM					
C[C@H](c1ccc(C#N)cc1)n1cncc1CN1CCN(c2nc3ccccc3o2)CC1 [Compound 24, (R)-4-(1-(5-((4-(benzo[d]oxazol-2-yl)piperazin-1-yl)methyl)-1H-imidazol-1-yl)ethyl) benzonitrile]	11 nM	> 10000 nM	3430 nM	2260 nM	3080 nM					
N#Cc1ccc(C2(n3cncc3CN3CCN(c4nc5ccccc5o4)CC3)CC2)cc1 [Compound 25, 4-(1-(5-((4-(benzo[d]oxazol-2-yl)piperazin-1-yl)methyl)-1H-imidazol-1-yl)cyclopropyl) benzonitrile]	28 nM	> 10000 nM	9590 nM	> 10000 nM	2910 nM					
CC(C)OCCn1cncc1CN1CCN(c2nc3ccccc3o2)CC1 [Compound 26, 2-(4-((1-(2-isopropoxyethyl)-1H-imidazol-5-yl)methyl)piperazin-1-yl)benzo[d]oxazole]	21 nM	> 10000 nM	> 10000 nM	> 10000 nM	1040 nM					
CC(C)C(C)n1cncc1CN1CCN(c2nc3ccccc3o2)CC1 (stereo not drawn) [Compound 27, 2-(4-((1-(3-methylbutan-2-yl)-1H-imidazol-5-yl)methyl)piperazin-1-yl)benzo[d]oxazole]	9 nM	> 10000 nM	> 10000 nM	> 10000 nM	1760 nM					
